We go through 1 substance from US20040014653A1, “Peptide composition” (priority 2000, published 2004).

In the assay the test system is Human keratinocytes (HatKat). Put plainly: Growth of keratinocytes, cell count in Coulter counter after three days. The format is cell-based. Here is the method:
Human keratinocytes (HatKat) were grown in keratinocyte growth medium (TCS Cellworks Ltd.) until 20% confluence. Then, in the same medium, the keratinocytes were grown for three days with 0.5% foetal calf serum (FCS), at which point the cells were counted in a Coulter® counter. The cell numbers obtained are set out in Table 3 below.

With “EGF: epidermal growth factor, comparator growth factor in keratinocyte growth test”, the “increase in the growth of keratinocytes (in words)” value (10 ng/mi EGF versus medium with 0.5% FCS) is “relatively modest increase”. For the same substance, under “Medium with 0.5% FCS + 10 ng/ml EGF, three days”, the Number of cells is 29,356.
